{"source": "patent US5703239A", "about": "“Indanylpiperidines as melatonergic agents” (Bristol-Myers Squibb Company, priority 1996, dated 1997)", "target": "T1, human ML1B receptor (Homo sapiens, UniProt P49286)", "T1 construct": "expressed in transfected cells; host or cells: NIH 3T3 cells (stably transfected; obtained from S. M. Reppert)", "T1 sequence (P49286 1-362)": "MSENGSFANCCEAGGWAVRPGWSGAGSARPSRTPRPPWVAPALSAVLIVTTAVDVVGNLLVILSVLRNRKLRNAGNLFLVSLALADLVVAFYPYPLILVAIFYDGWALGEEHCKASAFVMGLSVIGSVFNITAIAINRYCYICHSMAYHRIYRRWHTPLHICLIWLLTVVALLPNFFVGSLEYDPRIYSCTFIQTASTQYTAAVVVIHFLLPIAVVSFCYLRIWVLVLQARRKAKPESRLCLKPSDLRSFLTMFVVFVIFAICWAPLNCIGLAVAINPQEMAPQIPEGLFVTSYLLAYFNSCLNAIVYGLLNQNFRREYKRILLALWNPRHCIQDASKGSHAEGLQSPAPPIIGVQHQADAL", "assay": "Binding to human melatonergic receptors (2-[125I]-iodomelatonin, NIH 3T3 cell membranes, human ML1B receptor)", "details": "IC50 class; 200 pM 2-[125I]-iodomelatonin, 37° C., 1 hour, membranes of NIH 3T3 cells transfected with human ML1B receptor; read-out: Melatonin Binding", "experimental": "Measurement of Binding to Human Melatonergic Receptors The melatonergic binding affinities of various compounds of Formula I were determined by the method of Reppert, S. M., Weaver, D. R., and Ebisawa, R. (Neuron, Volume 13, 1177-1185, 1994). The assays were incubated at 37° C. for 1 hour, and the reaction was terminated by filtration. The filters were washed with wash buffer. […] The reagents, membrane and other techniques used in the melatonergic binding assays are more fully described below: […] Reagents: (a) 50 mM Tris buffer containing 12.5 mM MgCl2, and 2 mM EDTA, pH 7.4 at 37° C. (b) Wash buffer: 20 mM Tris base containing 2 mM MgCl2. pH 7.4 at room temperature. (c) Melatonin (10^-5 M final concentration). (d) 2-[^125 I]-Iodomelatonin, 200 pM final concentration Source: NEN 2. Membrane preparation: NIH 3T3 cells stably transfected with the human ML1B receptor were obtained from S. M. Reppert and maintained. Cells were pelleted when confluent. The supernatant was discarded and the pellets frozen. For preparing membrane homogenates, the pellets are thawed on ice and resuspended in TME buffer, Tris base, MgCl2, EDTA (pH 7.4 at 37° C.), supplemented with aprotinin, leupeptin, and […]. The cells were then homogenized and centrifuged. The resulting pellet was resuspended with a Dounce homogenizer in TME and frozen. At assay, a small aliquot was thawed on ice and resuspended in TME buffer."}
{"smiles": "COc1ccc2c(c1)C(C1CCN(C(=O)N(C)C)CC1)CC2", "note": "(single isomer, unassigned; (-)) [(-)-N,N-Dimethyl-4-(6-methoxy-indan-1-yl)piperidine-1-carboxamide]", "values": [{"measurement": "IC50", "value": "< 10", "unit": "nM"}]}
{"smiles": "COc1ccc2c(c1)C(C1CCN(C(=O)C(C)C)CC1)CC2", "note": "(single isomer, unassigned; (+)) [(+)-4-(6-Methoxy-indan-1-yl)-1-(2-methylpropanoyl)piperidine]", "values": [{"measurement": "IC50", "value": "10 to 100", "unit": "nM"}]}
{"smiles": "COc1ccc2c(c1)C(C1CCN(C(=O)C(C)C)CC1)CC2", "note": "(single isomer, unassigned; (-)) [(-)-4-(6-Methoxy-indan-1-yl)-1-(2-methyl-propanoyl)piperidine]", "values": [{"measurement": "IC50", "value": "< 10", "unit": "nM"}]}
{"smiles": "CCC(=O)N1CCC(C2CCc3ccc(OC)cc32)CC1", "note": "(single isomer, unassigned; (-)) [(-)-4-(6-Methoxy-indan-1-yl)-1-propanoylpiperidine]", "values": [{"measurement": "IC50", "value": "< 10", "unit": "nM"}]}
{"smiles": "CCC(C)C(=O)N1CCC(C2CCc3ccc(OC)cc32)CC1", "note": "(stereo not drawn) [4-(6-Methoxy-indan-1-yl)-1-(2-methylbutanoyl)piperidine]", "values": [{"measurement": "IC50", "value": "< 10", "unit": "nM"}]}
{"smiles": "O=C(C1CC1)N1CCC(C2CCc3ccc(F)cc32)CC1", "note": "(stereo not drawn) [1-(Cyclopropylcarbonyl)-4-(6-fluoro-indan-1-yl)piperidine]", "values": [{"measurement": "IC50", "value": "< 10", "unit": "nM"}]}
{"smiles": "CCCCC(=O)N1CCC(C2CCc3ccc(OC)cc32)CC1", "note": "(single isomer, unassigned; (-)) [(-)-4-(6-Methoxy-indan-1-yl)-1-pentanoylpiperidine]", "values": [{"measurement": "IC50", "value": "< 10", "unit": "nM"}]}
{"smiles": "CNC(=O)N1CCC(C2CCc3cc(F)c(OC)cc32)CC1", "note": "(stereo not drawn) [N-Methyl-4-(5-fluoro-6-methoxy-indan-1-yl)piperidine-1-carboxamide]", "values": [{"measurement": "IC50", "value": "< 10", "unit": "nM"}]}
{"smiles": "COc1ccc2c(c1)C(C1CCN(C(C)=O)CC1)CC2", "note": "(single isomer, unassigned; (-)) [(-)-1-Acetyl-4-(6-methoxy-indan-1-yl)piperidine]", "values": [{"measurement": "IC50", "value": "< 10", "unit": "nM"}]}
{"smiles": "CCc1ccc2c(c1)C(C1CCN(C(=O)C(C)C)CC1)CC2", "note": "(stereo not drawn) [4-(6-Ethyl-indan-1-yl)-1-(2-methylpropanoyl)piperidine]", "values": [{"measurement": "IC50", "value": "< 10", "unit": "nM"}]}
{"smiles": "COc1ccc2c(c1)C(C1CCN(C(=O)C3CC3)CC1)CCC2", "note": "(stereo not drawn) [1-(Cyclopropylcarbonyl)-4-(7-methoxy-tetralin-1-yl)piperidine]", "values": [{"measurement": "IC50", "value": "< 10", "unit": "nM"}]}
{"smiles": "CCCC(=O)N1CCC(C2CCc3ccc(F)cc32)CC1", "note": "(stereo not drawn) [1-Butanoyl-4-(6-fluoro-indan-1-yl)piperidine]", "values": [{"measurement": "IC50", "value": "< 10", "unit": "nM"}]}
{"smiles": "CNC(=O)N1CCC(C2CCc3ccc(OC)cc32)CC1", "note": "(single isomer, unassigned; (+)) [(+)-N-Methyl-4-(6-methoxy-indan-1-yl)piperidine-1-carboxamide]", "values": [{"measurement": "IC50", "value": "10 to 100", "unit": "nM"}]}
{"smiles": "CCNC(=O)N1CCC(C2CCc3ccc(OC)cc32)CC1", "note": "(single isomer, unassigned; (-)) [(-)-N-Ethyl-4-(6-methoxy-indan-1-yl)piperidine-1-carboxamide]", "values": [{"measurement": "IC50", "value": "< 10", "unit": "nM"}]}
{"smiles": "COCC(=O)N1CCC(C2CCc3ccc(OC)cc32)CC1", "note": "(stereo not drawn) [4-(6-Methoxy-indan-1-yl)-1-(2-methoxy-acetyl)piperidine]", "values": [{"measurement": "IC50", "value": "< 10", "unit": "nM"}]}
{"smiles": "CCNC(=O)N1CCC(C2CCc3ccc(OC)cc32)CC1", "note": "(stereo not drawn) [N-Ethyl-4-(6-methoxy-indan-1-yl)piperidine-1-carboxamide]", "values": [{"measurement": "IC50", "value": "< 10", "unit": "nM"}]}
{"smiles": "CCCC(=O)N1CCC(C2CCc3cc(F)c(OC)cc32)CC1", "note": "(stereo not drawn) [1-Butanoyl-4-(5-fluoro-6-methoxy-indan-1-yl)piperidine]", "values": [{"measurement": "IC50", "value": "< 10", "unit": "nM"}]}
{"smiles": "COc1ccc2c(c1)C(C1CCN(C(=O)C(F)(F)F)CC1)CC2", "note": "(stereo not drawn) [4-(6-methoxy-indan-1-yl)-1-(trifluoroacetyl)piperidine]", "values": [{"measurement": "IC50", "value": "< 10", "unit": "nM"}]}
{"smiles": "COc1ccc2c(c1)C(C1CCN(C(=O)c3cccs3)CC1)CC2", "note": "(stereo not drawn) [4-(6-Methoxy-indan-1-yl)-1-[(2-thienyl)carbonyl]piperidine]", "values": [{"measurement": "IC50", "value": "< 10", "unit": "nM"}]}
{"smiles": "COc1ccc2c(c1)C(C1CCN(C(=O)C3CC3)CC1)CC2", "note": "(single isomer, unassigned; (-)) [(-)-1-(Cyclopropylcarbonyl)-4-(6-methoxy-indan-1-yl)piperidine]", "values": [{"measurement": "IC50", "value": "< 10", "unit": "nM"}]}
{"smiles": "COc1ccc2c(c1)C(C1CCN(C(=O)CSC)CC1)CC2", "note": "(stereo not drawn) [4-(6-Methoxy-indan-1-yl)-1-(2-methylthioacetyl)piperidine]", "values": [{"measurement": "IC50", "value": "< 10", "unit": "nM"}]}
{"smiles": "COc1ccc2c(c1)C(C1CCN(C(=O)c3ccco3)CC1)CC2", "note": "(stereo not drawn) [1-[(2-Furanyl)carbonyl]-4-(6-methoxy-indan-1-yl)-piperidine]", "values": [{"measurement": "IC50", "value": "< 10", "unit": "nM"}]}
{"smiles": "CCC(=O)N1CCC(C2CCc3cc(F)c(OC)cc32)CC1", "note": "(stereo not drawn) [4-(5-Fluoro-6-methoxy-indan-1-yl)-1-propanoylpiperidine]", "values": [{"measurement": "IC50", "value": "< 10", "unit": "nM"}]}
{"smiles": "CCNC(=O)N1CCC(C2CCc3ccccc32)CC1", "note": "(stereo not drawn) [N-Ethyl-4-(indan-1-yl)-piperidine-1-carboxamide]", "values": [{"measurement": "IC50", "value": "10 to 100", "unit": "nM"}]}
{"smiles": "COc1ccc2c(c1)C(C1CCN(C(=O)c3ccc(C)s3)CC1)CC2", "note": "(stereo not drawn) [4-(6-methoxy-indan-1-yl)-1-[(5-methyl-thien-2-yl)carbonyl]piperidine]", "values": [{"measurement": "IC50", "value": "10 to 100", "unit": "nM"}]}
{"smiles": "COCC(=O)N1CCC(C2CCc3ccc(OC)cc32)CC1", "note": "(single isomer, unassigned; (-)) [(-)-4-(6-Methoxy-indan-1-yl)-1-(2-methoxyacetyl)piperidine]", "values": [{"measurement": "IC50", "value": "< 10", "unit": "nM"}]}
{"smiles": "COc1ccc2c(c1)C(C1CCN(C(=O)c3occc3C)CC1)CC2", "note": "(stereo not drawn) [4-(6-Methoxy-indan-1-yl)-1-[(3-methyl-furan-2-yl)carbonyl]piperidine]", "values": [{"measurement": "IC50", "value": "< 10", "unit": "nM"}]}
{"smiles": "CNC(=O)N1CCC(C2CCc3ccc(OC)cc32)CC1", "note": "(stereo not drawn) [N-Methyl-4-(6-methoxy-indan-1-yl)piperidine-1-carboxamide]", "values": [{"measurement": "IC50", "value": "< 10", "unit": "nM"}]}
{"smiles": "COc1ccc2c(c1)C(C1CCN(C=O)CC1)CC2", "note": "(single isomer, unassigned; (+)) [(+)-1-Formyl-4-(6-methoxy-indan-1-yl)piperidine]", "values": [{"measurement": "IC50", "value": "10 to 100", "unit": "nM"}]}
{"smiles": "CCNC(=O)N1CCC(C2CCc3ccc(F)cc32)CC1", "note": "(stereo not drawn) [N-Ethyl-4-(6-fluoro-indan-1-yl)piperidine-1-carboxamide]", "values": [{"measurement": "IC50", "value": "< 10", "unit": "nM"}]}
{"smiles": "CCCC(=O)N1CCC(C2CCc3ccc(OC)cc32)CC1", "note": "(single isomer, unassigned; (-)) [(-)-1-Butanoyl-4-(6-methoxy-indan-1-yl)piperidine]", "values": [{"measurement": "IC50", "value": "< 10", "unit": "nM"}]}
{"smiles": "COc1ccc2c(c1)C(C1CCN(C(=O)c3sccc3Cl)CC1)CC2", "note": "(stereo not drawn) [1-[(3-Chloro-thien-2-yl)carbonyl]-4-(6-methoxy-indan-1-yl)-piperidine]", "values": [{"measurement": "IC50", "value": "< 10", "unit": "nM"}]}
{"smiles": "CNC(=O)N1CCC(C2CCc3ccc(F)cc32)CC1", "note": "(stereo not drawn) [N-Methyl-4-(6-fluoro-indan-1-yl)piperidine-1-carboxamide]", "values": [{"measurement": "IC50", "value": "10 to 100", "unit": "nM"}]}
{"smiles": "O=C(C1CC1)N1CCC(C2CCc3ccccc32)CC1", "note": "(stereo not drawn) [1-(Cyclopropylcarbonyl)-4-(indan-1-yl)piperidine]", "values": [{"measurement": "IC50", "value": "< 10", "unit": "nM"}]}
{"smiles": "COc1ccc2c(c1)C(C1CCN(C(=O)C3CC3)CC1)CC2", "note": "(stereo not drawn) [1-Cyclopropylcarbonyl-4-(6-methoxy-indan-1-yl)piperidine]", "values": [{"measurement": "IC50", "value": "< 10", "unit": "nM"}]}
{"smiles": "CCC(C)(C)C(=O)N1CCC(C2CCc3ccc(OC)cc32)CC1", "note": "(stereo not drawn) [1-(2,2-Dimethyl-butanoyl)-4-(6-methoxy-indan-1-yl)piperidine]", "values": [{"measurement": "IC50", "value": "10 to 100", "unit": "nM"}]}
{"smiles": "COc1cc2c(cc1F)CCC2C1CCN(C(=O)C(C)C)CC1", "note": "(stereo not drawn) [4-(5-Fluoro-6-methoxy-indan-1-yl)1-(2-methylpropanoyl)piperidine]", "values": [{"measurement": "IC50", "value": "< 10", "unit": "nM"}]}
{"smiles": "CNC(=S)N1CCC(C2CCc3ccc(OC)cc32)CC1", "note": "(stereo not drawn) [N-Methyl-4-(6-methoxy-indan-1-yl)-piperidine-1-thiocarboxamide]", "values": [{"measurement": "IC50", "value": "< 10", "unit": "nM"}]}
{"smiles": "COc1ccc2c(c1)C(C1CCN(C(=O)c3csc(Cl)c3OC)CC1)CC2", "note": "(stereo not drawn) [1-[(2-Chloro-3-methoxythien-4-yl)carbonyl]-4-(6-methoxy-indan-1-yl)piperidine]", "values": [{"measurement": "IC50", "value": "10 to 100", "unit": "nM"}]}
